The record followed here is patent US11639348B2, “Compositions and methods for neuraminidase detection and quantification” (priority 2018, dated 2023).

The target of series [1] is sialidase from Micromonospora viridifaciens (NedA) (Micromonospora viridifaciens, UniProt Q02834). It is filed as biochemical.
Series [2] deals with influenza N2 subtype neuraminidase from A/Hong Kong/1/68 (H3N2) (Influenza A virus, UniProt Q91MA2). Format: biochemical, influenza A/Hong Kong/1/68 (H3N2). Conditions: pH 7.6.
Chain of influenza N2 subtype neuraminidase from A/Hong Kong/1/68 (H3N2) (Q91MA2 whole entry, looked up): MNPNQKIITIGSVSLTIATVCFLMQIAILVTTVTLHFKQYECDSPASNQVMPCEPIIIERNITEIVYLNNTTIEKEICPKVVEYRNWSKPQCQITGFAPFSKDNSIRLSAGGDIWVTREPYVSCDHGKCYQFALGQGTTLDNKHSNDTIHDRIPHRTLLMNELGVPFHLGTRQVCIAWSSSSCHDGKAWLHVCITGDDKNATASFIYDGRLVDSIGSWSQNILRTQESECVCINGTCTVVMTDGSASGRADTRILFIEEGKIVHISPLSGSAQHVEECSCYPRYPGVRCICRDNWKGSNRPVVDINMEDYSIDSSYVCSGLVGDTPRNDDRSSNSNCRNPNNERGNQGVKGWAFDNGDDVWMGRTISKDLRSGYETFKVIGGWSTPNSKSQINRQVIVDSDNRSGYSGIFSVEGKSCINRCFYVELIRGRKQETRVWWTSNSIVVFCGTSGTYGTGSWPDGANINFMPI
A short description of series [3]: Spontaneous hydrolysis of stock solution.
Another series relates to influenza virus NAs. Format: biochemical.
The test system of the next series is influenza B NAs. Format: biochemical.
In series [4] the target is NA of A/WS/33 (H1N1) influenza virus (Influenza A virus, UniProt P03470). It is filed as biochemical, influenza A/WS/33 (H1N1).
Chain of NA of A/WS/33 (H1N1) influenza virus (P03470 whole entry, looked up): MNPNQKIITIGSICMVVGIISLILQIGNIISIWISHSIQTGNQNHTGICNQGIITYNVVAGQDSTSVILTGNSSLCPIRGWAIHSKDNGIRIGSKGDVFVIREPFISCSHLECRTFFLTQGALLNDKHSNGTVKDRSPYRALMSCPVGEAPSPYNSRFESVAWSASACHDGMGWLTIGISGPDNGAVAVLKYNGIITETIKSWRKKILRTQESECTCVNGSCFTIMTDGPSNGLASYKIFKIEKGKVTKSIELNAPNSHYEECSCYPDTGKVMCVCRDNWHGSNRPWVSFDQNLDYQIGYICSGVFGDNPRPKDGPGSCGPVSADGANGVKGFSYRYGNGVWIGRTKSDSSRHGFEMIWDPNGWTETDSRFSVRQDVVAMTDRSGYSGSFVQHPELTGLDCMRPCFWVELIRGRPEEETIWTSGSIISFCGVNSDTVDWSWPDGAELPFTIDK
The subject of series [5] is A/Brisbane/59/2007 H1N1 NA. It is filed as biochemical, influenza A/Brisbane/59/2007 H1N1. The settings on record: pH 7.6.
In series [6] the test system is A/California/07/2009 H1N1 NA. It is filed as biochemical, influenza A/California/07/2009 H1N1. Conditions: pH 7.6.
In series [7] the test system is A/Washington/10/2008 H1N1 NA. It is filed as biochemical, influenza A/Washington/10/2008 H1N1. The settings on record: pH 7.6.
In a further series the test system is B/Florida/04/2006 NA. Format: biochemical, influenza B/Florida/04/2006. Conditions: pH 7.6.
A further series deals with B/Hong Kong/05/1972 NA. Format: biochemical, influenza B/Hong Kong/05/1972. Conditions: pH 7.6.
Another series has as its system NA activity of virus. Format: biochemical.
The test system of series [8] is CC(=O)NC1C(NC(=N)N)C(F)C(Oc2c(F)cc3c(C)cc(=O)oc3c2F)(C(=O)O)OC1[C@H](O)[C@H](O)CO. In words: purified protein, by the assay type. Conditions: pH 7.6; 30.0 °C.

Entries after “also recorded” stand apart in the source; their conditions may differ.

Chain of sialidase from Micromonospora viridifaciens (NedA) (Q02834 38-647): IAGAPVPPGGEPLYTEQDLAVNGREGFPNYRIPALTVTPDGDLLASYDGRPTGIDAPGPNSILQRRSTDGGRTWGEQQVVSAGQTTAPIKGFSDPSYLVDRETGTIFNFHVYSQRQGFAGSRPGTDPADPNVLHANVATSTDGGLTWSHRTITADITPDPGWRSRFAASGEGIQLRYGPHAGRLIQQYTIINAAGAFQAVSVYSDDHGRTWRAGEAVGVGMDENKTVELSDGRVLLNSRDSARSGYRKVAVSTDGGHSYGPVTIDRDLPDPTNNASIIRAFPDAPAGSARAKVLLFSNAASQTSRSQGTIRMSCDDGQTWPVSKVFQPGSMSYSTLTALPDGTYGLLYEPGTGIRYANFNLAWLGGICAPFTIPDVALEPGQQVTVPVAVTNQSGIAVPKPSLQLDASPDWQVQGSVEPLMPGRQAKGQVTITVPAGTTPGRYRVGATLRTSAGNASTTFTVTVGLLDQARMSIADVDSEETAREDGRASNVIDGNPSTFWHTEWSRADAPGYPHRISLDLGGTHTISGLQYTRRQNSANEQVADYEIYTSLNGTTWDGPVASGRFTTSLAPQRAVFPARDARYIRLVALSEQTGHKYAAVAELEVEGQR

As to `CC(=O)NC1C(O)C(F)C(Oc2c(F)cc3c(C)cc(=O)oc3c2F)(C(=O)O)OC1[C@H](O)[C@H](O)CO` (stereo partly drawn) [compound 1, 5-Acetamido-3-fluoro-3,5-dideoxy-2α-(4-methyl-6,8-difluoromethylumbelli-feryl)-D-glycero-D-galactononulopyranosylnoic Acid], in [1], the “NedA concentration down to which burst size vs concentration is linear” value was ≤ 0.7 nM. For the same compound, in series [1] (pH 7.6), the “fluorescence response on titration of NedA (burst and turnover)” value was “a classical burst phase of increased fluorescence was observed, followed by a steady-state phase”. Also, the “burst and turnover on titration of N2” value in series [2] is “a burst was indeed seen, but significant turnover was also observed”. Further, the “stability of stock solution” value in [3] is “undergoes slow spontaneous hydrolysis”.

Consider `CC(=O)NC1C(N)C(F)C(Oc2c(F)cc3c(C)cc(=O)oc3c2F)(C(=O)O)OC1[C@H](O)[C@H](O)CO` (stereo partly drawn) [compound 2, 5-Acetamido-4-amino-3-fluoro-3,4,5-trideoxy-2α-(4-methyl-6,8-difluoromethylumbelliferyl)-D-glycero-D-galactononulopyranosylnoic acid], for which, in [2], the “burst and turnover on titration of N2” value is “produced a burst, but significant turnover was still observed”.

On to `CC(=O)NC1C(NC(=N)N)C(F)C(Oc2c(F)cc3c(C)cc(=O)oc3c2F)(C(=O)O)OC1[C@H](O)[C@H](O)CO` (stereo partly drawn) [compound 3, 5-Acetamido-4-guanidine-3-fluoro-3,4,5-trideoxy-2α-(4-methyl-6,8-difluoromethylumbelliferyl)-D-glycero-D-galactononulopyranosylnoic acid], for which the “response on incubation with GH33 sialidase NedA” value in series [1] is “no significant response”. Moreover, the “burst and turnover on titration of N2” value in [2] is recorded as “no detectable turnover at all, while a rapid initial burst was observed”. The “time to reach plateau of titration” value in the series with influenza virus NAs is listed as “about 30 min”. For the same compound, in the series with influenza B NAs, the time to inactivation entry is reported as “within several seconds”. Also, the “NA concentration down to which reliable data are given” value in series [4] was “approximately 200 pM”. The “burst, F2Mu released” value in [4] is listed as 27 nM. Also, the “initial concentration of NA in the original virus sample” value in series [4] came out at 1.08 µM. In addition, the Km in [5] was 41.1 µM; in series [6] it was 31.9 µM; in [7], 62.2 µM; with B/Florida/04/2006 NA it was 28.6 µM; in the series with B/Hong Kong/05/1972 NA, 29.6 µM. Besides, the kcat amounted to 32.6 s⁻¹ in series [5]; 76.4 s⁻¹ in [6]; 63.3 s⁻¹ in [7]; 26.7 s⁻¹ with B/Florida/04/2006 NA; 30.0 s⁻¹ in the series on B/Hong Kong/05/1972 NA.

As for `O=C1CCO1` [β-propiolactone], the “effect on NA activity compared to live virus” value with NA activity of virus is reported as “significantly reduced NA activities; also recorded: dramatically reduced NA activities”.

“(Influenza A virus (A/Hong Kong/1/1968(H3N2)))”: in series [8], the Km was 45.6 µM, the kcat stood at 76.7 s⁻¹ and the kcat/Km was found to be 1.68e+06 M⁻¹ s⁻¹.

For nonyl phenoxypolyethoxylethanol [NP40], the “effect on NA activity compared to live virus” value in the series on NA activity of virus is given as “did not affect the NA activity; also recorded: did not affect the NA activities”.
